Source: ChEMBL document CHEMBL1137549, “1-Aminocyclopentane-1,2,4-tricarboxylic acids screening on glutamatergic and serotonergic systems” (Bioorg Med Chem, 2007)
Calls of active or inactive are those of the source. The calls are words filed in the database; no cut-off is given here.

Key:
[1] = target: Metabotropic glutamate receptor 1 (Homo sapiens) (UniProt Q13255); assay: Agonist activity at mGluR1 expressed in CHO cells assessed as stimulation of phosphatidyl inositol hydrolysis at 10 uM; type: functional, cell-based
[2] = target: Metabotropic glutamate receptor 1 (Homo sapiens) (UniProt Q13255); assay: Antagonist activity at mGluR1 expressed in CHO cells assessed as inhibition of glutamate stimulated phosphatidyl inositol hydrolysis at 10 uM; type: functional, cell-based
[3] = target: Metabotropic glutamate receptor 2 (Homo sapiens) (UniProt Q14416); assay: Agonist activity at mGluR2 expressed in CHO cells assessed as decrease in cAMP accumulation at 10 uM; type: functional, cell-based; parameters: scale not given: the % may be the effect or the level left
[4] = target: Metabotropic glutamate receptor 6 (Homo sapiens) (UniProt O15303); assay: Agonist activity at mGluR6 expressed in CHO cells assessed as decrease in cAMP accumulation at 10 uM; type: functional, cell-based; parameters: scale not given: the % may be the effect or the level left
[5] = target: T1, 5-hydroxytryptamine receptor 1A (Rattus norvegicus, UniProt P19327); assay: Displacement of [3H]8-OH-DPAT from 5HT1A receptor in rat cortex membrane; type: cell membranes
T1 sequence (P19327 whole entry): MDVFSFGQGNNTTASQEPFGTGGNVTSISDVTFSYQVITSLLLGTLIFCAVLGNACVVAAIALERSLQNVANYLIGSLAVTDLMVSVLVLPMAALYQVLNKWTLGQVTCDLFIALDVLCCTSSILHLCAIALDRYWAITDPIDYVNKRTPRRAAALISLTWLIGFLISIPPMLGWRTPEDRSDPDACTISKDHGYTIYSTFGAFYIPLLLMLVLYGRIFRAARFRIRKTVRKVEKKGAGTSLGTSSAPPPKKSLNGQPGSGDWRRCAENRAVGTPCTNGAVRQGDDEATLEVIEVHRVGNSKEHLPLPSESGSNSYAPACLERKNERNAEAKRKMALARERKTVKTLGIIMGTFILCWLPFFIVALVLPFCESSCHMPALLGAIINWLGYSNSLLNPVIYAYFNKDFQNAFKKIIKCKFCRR

[6] = target: 5-hydroxytryptamine receptor 2A (Rattus norvegicus, UniProt P14842); assay: Displacement of [3H]ketanserin from 5HT2A receptor in rat cortex membrane; type: cell membranes
[7] = target: Sodium-dependent serotonin transporter (Homo sapiens, UniProt P31645); type: cell membranes
[8] = target: Metabotropic glutamate receptor 2 (Homo sapiens) (UniProt Q14416); assay: Antagonist activity at mGluR2 expressed in CHO cells assessed as inhibition of glutamate-induced cAMP accumulation at 10 uM; type: functional, cell-based
[9] = target: Metabotropic glutamate receptor 6 (Homo sapiens) (UniProt O15303); assay: Antagonist activity at mGluR6 expressed in CHO cells assessed as inhibition of AP4-induced cAMP accumulation at 10 uM; type: functional, cell-based
[10] = target: Metabotropic glutamate receptor 2 (Homo sapiens) (UniProt Q14416); assay: Antagonist activity at mGluR2 expressed in CHO cells assessed as inhibition of forskolin stimulated cAMP accumulation at 10 uM; type: functional, cell-based
[11] = target: Metabotropic glutamate receptor 6 (Homo sapiens) (UniProt O15303); assay: Antagonist activity at mGluR6 expressed in CHO cells assessed as inhibition of forskolin stimulated cAMP accumulation at 10 uM; type: functional, cell-based

Chain of Metabotropic glutamate receptor 6 (Homo sapiens) (O15303 whole entry): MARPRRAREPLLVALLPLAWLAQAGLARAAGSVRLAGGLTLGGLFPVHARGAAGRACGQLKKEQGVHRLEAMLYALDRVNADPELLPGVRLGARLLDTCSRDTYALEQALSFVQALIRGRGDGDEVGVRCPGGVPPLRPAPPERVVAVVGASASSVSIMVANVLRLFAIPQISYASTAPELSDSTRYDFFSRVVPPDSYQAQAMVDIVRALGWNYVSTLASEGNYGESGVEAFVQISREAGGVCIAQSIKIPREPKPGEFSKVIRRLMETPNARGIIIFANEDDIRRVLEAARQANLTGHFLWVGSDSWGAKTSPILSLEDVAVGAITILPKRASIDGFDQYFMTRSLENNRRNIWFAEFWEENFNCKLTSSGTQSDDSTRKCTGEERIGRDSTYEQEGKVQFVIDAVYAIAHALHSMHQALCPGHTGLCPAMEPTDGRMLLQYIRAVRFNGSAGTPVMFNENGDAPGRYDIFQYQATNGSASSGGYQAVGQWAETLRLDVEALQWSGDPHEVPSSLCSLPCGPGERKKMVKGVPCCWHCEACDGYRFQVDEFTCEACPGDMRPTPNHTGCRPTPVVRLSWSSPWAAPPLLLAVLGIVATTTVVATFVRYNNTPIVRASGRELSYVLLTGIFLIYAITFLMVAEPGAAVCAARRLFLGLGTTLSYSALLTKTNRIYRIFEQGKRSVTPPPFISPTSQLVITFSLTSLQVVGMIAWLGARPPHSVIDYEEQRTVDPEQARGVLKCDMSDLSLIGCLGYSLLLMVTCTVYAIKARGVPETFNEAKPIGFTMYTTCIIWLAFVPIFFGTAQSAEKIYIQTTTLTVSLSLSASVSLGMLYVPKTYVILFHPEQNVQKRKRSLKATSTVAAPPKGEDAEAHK
Chain of Sodium-dependent serotonin transporter (P31645 whole entry): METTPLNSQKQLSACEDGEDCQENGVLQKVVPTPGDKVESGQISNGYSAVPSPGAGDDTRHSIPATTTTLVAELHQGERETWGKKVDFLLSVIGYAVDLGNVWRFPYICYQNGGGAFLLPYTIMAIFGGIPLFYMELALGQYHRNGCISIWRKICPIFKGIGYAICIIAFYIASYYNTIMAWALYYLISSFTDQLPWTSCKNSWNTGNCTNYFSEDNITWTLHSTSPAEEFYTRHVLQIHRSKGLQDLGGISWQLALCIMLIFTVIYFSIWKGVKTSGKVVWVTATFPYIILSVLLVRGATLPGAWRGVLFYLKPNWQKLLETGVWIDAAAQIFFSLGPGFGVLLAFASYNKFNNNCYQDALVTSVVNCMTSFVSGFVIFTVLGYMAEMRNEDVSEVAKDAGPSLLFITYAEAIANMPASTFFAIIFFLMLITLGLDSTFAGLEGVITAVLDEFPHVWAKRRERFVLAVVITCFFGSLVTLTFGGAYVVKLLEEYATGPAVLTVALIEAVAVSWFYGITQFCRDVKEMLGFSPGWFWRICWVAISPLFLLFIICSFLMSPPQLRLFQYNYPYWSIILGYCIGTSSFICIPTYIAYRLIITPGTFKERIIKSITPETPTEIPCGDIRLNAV
Chain of Metabotropic glutamate receptor 2 (Homo sapiens) (Q14416 19-872 limits assumed): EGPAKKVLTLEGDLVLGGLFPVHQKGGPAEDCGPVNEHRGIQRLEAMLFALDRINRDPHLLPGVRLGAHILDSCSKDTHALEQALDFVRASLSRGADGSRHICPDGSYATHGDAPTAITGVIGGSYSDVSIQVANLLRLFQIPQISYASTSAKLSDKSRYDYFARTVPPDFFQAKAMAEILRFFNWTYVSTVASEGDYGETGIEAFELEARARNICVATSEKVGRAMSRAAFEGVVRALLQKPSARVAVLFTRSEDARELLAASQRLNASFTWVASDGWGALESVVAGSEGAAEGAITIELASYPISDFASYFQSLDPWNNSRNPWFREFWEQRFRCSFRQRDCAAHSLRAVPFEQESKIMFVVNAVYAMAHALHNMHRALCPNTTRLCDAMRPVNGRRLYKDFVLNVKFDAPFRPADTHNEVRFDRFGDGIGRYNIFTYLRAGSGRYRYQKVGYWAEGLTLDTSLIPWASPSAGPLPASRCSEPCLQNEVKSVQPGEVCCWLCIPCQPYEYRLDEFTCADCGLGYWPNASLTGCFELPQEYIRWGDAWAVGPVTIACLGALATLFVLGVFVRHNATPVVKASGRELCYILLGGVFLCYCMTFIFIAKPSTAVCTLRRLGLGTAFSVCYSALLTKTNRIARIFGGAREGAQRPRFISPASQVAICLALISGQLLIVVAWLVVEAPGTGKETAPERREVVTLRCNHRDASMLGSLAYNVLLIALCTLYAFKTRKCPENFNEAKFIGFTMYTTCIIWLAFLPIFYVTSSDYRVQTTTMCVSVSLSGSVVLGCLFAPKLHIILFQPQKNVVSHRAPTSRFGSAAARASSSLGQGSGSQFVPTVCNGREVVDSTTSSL
Chain of 5-hydroxytryptamine receptor 2A (P14842 whole entry): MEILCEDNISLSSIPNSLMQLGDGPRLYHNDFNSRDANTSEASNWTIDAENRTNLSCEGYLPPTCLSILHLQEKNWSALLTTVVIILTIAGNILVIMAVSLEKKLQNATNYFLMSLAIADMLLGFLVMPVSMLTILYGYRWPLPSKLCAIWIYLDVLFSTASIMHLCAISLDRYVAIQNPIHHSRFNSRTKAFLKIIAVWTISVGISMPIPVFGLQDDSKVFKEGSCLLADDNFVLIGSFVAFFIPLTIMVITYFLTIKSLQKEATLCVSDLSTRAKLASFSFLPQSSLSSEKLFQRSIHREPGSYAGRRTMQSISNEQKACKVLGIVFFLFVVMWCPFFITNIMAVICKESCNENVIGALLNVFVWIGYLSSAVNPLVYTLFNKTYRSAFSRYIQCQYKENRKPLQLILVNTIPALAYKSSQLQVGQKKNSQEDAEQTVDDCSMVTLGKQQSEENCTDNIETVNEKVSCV
Chain of Metabotropic glutamate receptor 1 (Homo sapiens) (Q13255 19-1194 limits assumed): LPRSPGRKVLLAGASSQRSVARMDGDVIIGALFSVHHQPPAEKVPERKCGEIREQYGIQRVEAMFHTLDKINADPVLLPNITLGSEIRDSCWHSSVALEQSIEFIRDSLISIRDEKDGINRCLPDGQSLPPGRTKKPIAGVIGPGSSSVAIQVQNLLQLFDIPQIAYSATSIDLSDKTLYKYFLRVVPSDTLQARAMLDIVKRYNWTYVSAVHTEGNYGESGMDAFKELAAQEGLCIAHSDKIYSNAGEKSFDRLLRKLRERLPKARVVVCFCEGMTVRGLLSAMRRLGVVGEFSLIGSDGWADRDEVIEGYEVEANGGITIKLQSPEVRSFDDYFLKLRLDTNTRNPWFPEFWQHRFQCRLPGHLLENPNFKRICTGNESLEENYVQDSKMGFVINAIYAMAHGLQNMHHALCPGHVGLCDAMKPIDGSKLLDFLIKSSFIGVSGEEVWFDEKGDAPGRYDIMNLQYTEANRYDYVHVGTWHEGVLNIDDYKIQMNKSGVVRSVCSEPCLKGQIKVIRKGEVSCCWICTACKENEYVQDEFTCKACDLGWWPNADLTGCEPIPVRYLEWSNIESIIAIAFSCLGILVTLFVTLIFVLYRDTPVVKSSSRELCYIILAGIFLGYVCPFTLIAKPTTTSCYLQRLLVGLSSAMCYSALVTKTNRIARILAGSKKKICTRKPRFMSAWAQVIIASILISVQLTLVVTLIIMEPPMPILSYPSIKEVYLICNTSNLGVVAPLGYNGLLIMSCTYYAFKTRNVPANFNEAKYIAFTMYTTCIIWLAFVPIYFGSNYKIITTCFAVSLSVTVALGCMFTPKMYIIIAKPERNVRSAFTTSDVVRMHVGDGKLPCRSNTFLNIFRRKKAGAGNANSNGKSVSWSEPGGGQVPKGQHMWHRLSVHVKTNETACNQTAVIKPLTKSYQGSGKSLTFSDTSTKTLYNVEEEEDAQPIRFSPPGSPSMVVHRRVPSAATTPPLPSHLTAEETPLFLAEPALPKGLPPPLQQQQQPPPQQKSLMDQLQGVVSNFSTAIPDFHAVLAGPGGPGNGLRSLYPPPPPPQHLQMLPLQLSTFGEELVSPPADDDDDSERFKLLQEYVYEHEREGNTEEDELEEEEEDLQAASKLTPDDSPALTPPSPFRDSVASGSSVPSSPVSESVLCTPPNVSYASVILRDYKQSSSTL

| Activity [1] | Activity [2] | Activity [3] | Activity [4] | Ki [5] | Ki [6] | Ki [7] | Activity [8] | Activity [9] | Activity [10] | Activity [11] | Compound |
| --- | --- | --- | --- | --- | --- | --- | --- | --- | --- | --- | --- |
| inactive | inactive | 30% | 30% | > 50 µM | > 50 µM | > 50 µM | inactive | inactive |  |  | N[C@@]1(C(=O)O)C[C@@H](C(=O)O)C[C@H]1C(=O)O |
| inactive | inactive | inactive | inactive | > 50 µM | > 50 µM | > 50 µM | inactive | inactive | inactive | inactive | N[C@@]1(C(=O)O)C[C@H](C(=O)O)C[C@@H]1C(=O)O |
| inactive | inactive | inactive | inactive | > 50 µM | > 50 µM | > 50 µM | inactive | inactive | inactive | inactive | N[C@]1(C(=O)O)C[C@H](C(=O)O)C[C@@H]1C(=O)O |
| inactive | inactive | inactive | inactive | > 50 µM | > 50 µM | 10 µM | inactive | inactive | inactive | inactive | N[C@]1(C(=O)O)C[C@@H](C(=O)O)C[C@H]1C(=O)O |
